Data from US20100310488A1, “SELECTING/IDENTIFYING AND ADMINISTERING ACTIVE AGENTS USEFUL FOR MODIFYING THE SHAPE OF KERATIN/HAIR FIBERS” (L'OREAL, priority 2007, published 2010).

Test system: fibroblasts (dermal papilla, connective sheath, dermal)
Experiment: Assaying of sulfated glycosaminoglycans in fibroblast culture (Blyscan)
Type: cell-based, human
Conditions: 7 days
Experimental: The fibroblasts are cultured in DMEM medium, 10% foetal calf serum (Gibco, Invitrogen), 1 mM MEM pyruvate (Gibco, Invitrogen) and 25 units/ml of penicillin-streptomycin (Gibco, Invitrogen). The dermal papilla fibroblast (P6), connective sheath fibroblast (P6) and dermal fibroblast are then counted using a Coulter Counter Z2 (Beckman Coulter inc., Fullerton, USA) and seeded at 2×10^5 cells per well in a 12-well plate, with the wells containing 1.5 ml of medium alone, which is the “control” condition, or being treated with 3 mM of 1,5-anhydro-6,8-dideoxy-L-glucooctitol. After 7 days, the supernatant is recovered and stored at −80° C. until the GAGs are assayed. […]
The proteins present in the lysate are assayed using the Dc Protein assay kit (Biorad). The amount of glycosaminoglycans is measured in the supernatant and the lysate.
The glycosaminoglycans are assayed using the Blyscan glycosaminoglycan isolation & concentration kit (Biocolor, Newtownabbey, Northern Ireland) and the Blyscan sulfated glycosaminoglycan assay kit. […] Each sample to be measured is mixed with 700 μl of the cetylpyridinium chloride solution in a 1.5 ml centrifuge tube, and then incubated on a rotary mixer thermostated at 37° C., at 250 rpm, for 2 hours. […] The absorbance of the solution at 656 nm is measured using a polystyrene semi-microcuvette on a Biomate 5 spectrometer (Thermo). […]

CC(O)CC1OCC(O)C(O)C1O [1,5-anhydro-6,8-dideoxy-L-glucooctitol]
increase in amount of glycosaminoglycans secreted (relative to control (medium alone), 3 mM in method): up to 7 times
GAG synthesis by the fibroblasts (versus control (medium alone)): increase in GAG synthesis by the fibroblasts, proportional to the concentration
